The subject of the experiment is P388 leukemia ip, CD2F1 mice, survival T/C. The experiment in a line: NCI In Vivo Anticancer Drug Screen. Data for tumor model P388 Leukemia (intraperitoneal) in CD2F1 (CDF1) mice. To be noted: endpoint: median survival time, higher = longer survival. In a few lines:
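Mice carrying the transplanted tumor received test compound or vehicle. Survival was recorded in each group, and the value is the treated-group measurement divided by that of the vehicle-treated control group.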

Setting [1] is: dose: 60.0 mg/kg/injection, schedule: Q01DX005 (ip), vehicle: saline with Tween-80.
Where [2] appears, read: dose: 120.0 mg/kg/injection, schedule: Q01DX005 (ip), vehicle: saline with Tween-80.
Setting [3] is: dose: 240.0 mg/kg/injection, schedule: Q01DX005 (ip), vehicle: saline with Tween-80.
[4] abbreviates: dose: 100.0 mg/kg/injection, schedule: Q04DX003 (ip), vehicle: saline with Tween-80.
Where [5] appears, read: dose: 200.0 mg/kg/injection, schedule: Q04DX003 (ip), vehicle: saline with Tween-80.
Where [6] appears, read: dose: 100.0 mg/kg/injection, schedule: Q01DX009 (ip), vehicle: Klucel (hydroxypropylcellulose) (HPC).
Setting [7] is: dose: 50.0 mg/kg/injection, schedule: Q01DX005 (ip), vehicle: Klucel (hydroxypropylcellulose) (HPC).
Where [8] appears, read: dose: 200.0 mg/kg/injection, schedule: Q01DX005 (ip), vehicle: Klucel (hydroxypropylcellulose) (HPC).
Setting [9] is: dose: 50.0 mg/kg/injection, schedule: Q01DX009 (ip), vehicle: saline.
Where [10] appears, read: dose: 100.0 mg/kg/injection, schedule: Q01DX009 (ip), vehicle: saline.
[11] abbreviates: dose: 200.0 mg/kg/injection, schedule: Q01DX009 (ip), vehicle: saline.
Setting [12] is: dose: 6.25 mg/kg/injection, schedule: Q01DX005 (ip), vehicle: Klucel (hydroxypropylcellulose) (HPC).
Where [13] appears, read: dose: 12.5 mg/kg/injection, schedule: Q01DX005 (ip), vehicle: Klucel (hydroxypropylcellulose) (HPC).
Setting [14] is: dose: 25.0 mg/kg/injection, schedule: Q01DX005 (ip), vehicle: Klucel (hydroxypropylcellulose) (HPC).
Setting [15] is: dose: 60.0 mg/kg/injection, schedule: Q01DX005 (ip), vehicle: saline.
Where [16] appears, read: dose: 120.0 mg/kg/injection, schedule: Q01DX005 (ip), vehicle: saline.
The mark [17] stands for this setting: dose: 100.0 mg/kg/injection, schedule: Q01DX009 (ip), vehicle: saline with Tween-80.

Molecules are shown by their SMILES. Where “and” joins values, the source holds several entries; their conditions need not be identical. Identical values can stand only once. Toxic doses and inconclusive results are not listed.

The results in this text go back to PubChem BioAssay AID330 (DTP/NCI, 2004).

Regarding `CCOC(=O)C(Cc1ccccc1C(=O)NC)c1ccccc1` (configuration not stated), the T/C by setting is: (dose: 100.0 mg/kg/injection, schedule: Q01DX009 (ip), vehicle: saline sonified) 95 % of control; (dose: 200.0 mg/kg/injection, schedule: Q01DX009 (ip), vehicle: saline sonified) 95 % of control; (dose: 400.0 mg/kg/injection, schedule: Q01DX009 (ip), vehicle: saline sonified) 95 % of control.
Regarding `O=c1[nH]cnc2sc3c(c12)CCC3`, the T/C was 100 % of control under setting [1], 88 % of control under setting [2] and 94 % of control under setting [3].
Consider `Nc1[nH]nc2nc(-c3ccc(Cl)cc3)cnc12`, for which the T/C is 100 % of control (dose: 50.0 mg/kg/injection, schedule: Q04DX003 (ip), vehicle: saline with Tween-80); 100 % of control under setting [4]; 100 % of control under setting [5].
`Cn1c(=O)c2c(-c3ccc(Cl)cc3)onc2n(C)c1=O`: the T/C by setting is: (dose: 50.0 mg/kg/injection, schedule: Q01DX009 (ip), vehicle: Klucel (hydroxypropylcellulose) (HPC)) 96 % of control; under setting [6], 100 % of control.
Consider `CSC1=Nc2ccccc2N=C(N2CCCC2)C1`, for which the T/C was 103 % of control under setting [7]; 97 % of control (dose: 100.0 mg/kg/injection, schedule: Q01DX005 (ip), vehicle: Klucel (hydroxypropylcellulose) (HPC)); 97 % of control under setting [8].
Take `CNC(=S)N/N=C\C(C)=N/Nc1ccc([N+](=O)[O-])cc1`: the T/C under setting [9] is 94 % of control, the T/C under setting [10] is 93 % of control and the T/C under setting [11] is 87 % of control.
Consider `COC(=O)c1cccc2c([N+](=O)[O-])c(NC(C)=O)cc(C(=O)OC)c12`, for which the T/C runs as follows: under setting [1], 100 % of control; under setting [2], 104 % of control; under setting [3], 100 % of control.
For the compound `COc1cc(/C=C/C(=O)NCCc2c[nH]c3ccc(O)cc23)ccc1O`, the T/C is 96 % of control under setting [12]; 95 % of control under setting [13]; 87 % of control and 90 % of control under setting [14]; 88 % of control under setting [7]; 88 % of control under setting [8].
On to `NOCc1ccccc1`, for which the T/C runs as follows: under setting [6], 93 % of control; (dose: 200.0 mg/kg/injection, schedule: Q01DX009 (ip), vehicle: Klucel (hydroxypropylcellulose) (HPC)) 86 % of control.
For the compound `COc1cc([C@@H]2c3cc4c(cc3[C@H](OC(=O)c3ccncc3)[C@H]3COC(=O)[C@H]23)OCO4)cc(OC)c1OC`, the T/C by setting is: under setting [12], 101 % of control; under setting [13], 104 % of control; under setting [14], 118 % of control.
As for `CCCCCCC(=O)CC(SCC(NC(C)=O)C(=O)O)c1ccccc1Cl` (configuration not stated), the T/C was 101 % of control under setting [15] and 93 % of control under setting [16].
Regarding `Oc1ccc(Nc2c3ccccc3nc3c2ccc2ccccc23)cc1CN(CCCl)CCCl`, the T/C (dose: 7.2 mg/kg/injection, schedule: Q04DX003 (ip), vehicle: saline) was 194 % of control; the T/C (dose: 11.0 mg/kg/injection, schedule: Q04DX003 (ip), vehicle: saline) was 205 % of control; the T/C (dose: 16.0 mg/kg/injection, schedule: Q04DX003 (ip), vehicle: saline) is 161 % of control.
On to `COc1cccc2c1C(=O)c1c(O)c3c(c(O)c1C2=O)C[C@@](O)(/C(C)=N/NC(=O)c1cccs1)C[C@@H]3OC1CC(N)C(O)C(C)O1` (some centres not stated), for which the T/C (dose: 1.56 mg/kg/injection, schedule: Q04DX003 (ip), vehicle: saline) was 169 % of control; the T/C (dose: 3.13 mg/kg/injection, schedule: Q04DX003 (ip), vehicle: saline) is 178 % of control; the T/C (dose: 6.25 mg/kg/injection, schedule: Q04DX003 (ip), vehicle: saline) is 191 % of control; the T/C (dose: 12.5 mg/kg/injection, schedule: Q04DX003 (ip), vehicle: saline) was 206 % of control; the T/C (dose: 25.0 mg/kg/injection, schedule: Q04DX003 (ip), vehicle: saline) was 104 % of control.
For `COc1ccc(CCN2COc3ccc4ccc(=O)oc4c3C2)cc1OC`, the T/C runs as follows: under setting [17], 100 % of control; under setting [4], 110 % of control; under setting [5], 115 % of control; (dose: 400.0 mg/kg/injection, schedule: Q01DX009 (ip), vehicle: saline with Tween-80) 100 % of control; (dose: 400.0 mg/kg/injection, schedule: Q04DX003 (ip), vehicle: saline with Tween-80) 110 % of control.
As to `COc1ccc(OC(=O)c2ccccc2)c2c1C(=O)C=CC2=O`, the T/C was 116 % of control (dose: 1.56 mg/kg/injection, schedule: Q01DX005 (ip), vehicle: saline with Tween-80); 111 % of control (dose: 3.13 mg/kg/injection, schedule: Q01DX005 (ip), vehicle: saline with Tween-80); 111 % of control and 116 % of control (dose: 6.25 mg/kg/injection, schedule: Q01DX005 (ip), vehicle: saline with Tween-80).
Regarding `C#CCOc1ccc(O)c(C(=O)OCCCOC(=O)c2cc(OCC#C)ccc2O)c1`, the T/C is 104 % of control under setting [1], 98 % of control under setting [2] and 100 % of control under setting [3].
Turning to `COC(C)(C)O/N=C(\C[P+](c1ccccc1)(c1ccccc1)c1ccccc1)c1ccc(Cl)cc1`, the T/C is 109 % of control (dose: 6.25 mg/kg/injection, schedule: Q01DX009 (ip), vehicle: Klucel (hydroxypropylcellulose) (HPC)); 106 % of control (dose: 12.5 mg/kg/injection, schedule: Q01DX009 (ip), vehicle: Klucel (hydroxypropylcellulose) (HPC)); 99 % of control (dose: 25.0 mg/kg/injection, schedule: Q01DX009 (ip), vehicle: Klucel (hydroxypropylcellulose) (HPC)).
Take `O=C(O)c1cc2c(cc1S(=O)(=O)O)C1C(C3C2C2(Cl)C(Cl)=C(Cl)C3(Cl)C2(Cl)Cl)C2(Cl)C(Cl)=C(Cl)C1(Cl)C2(Cl)Cl` (configuration not stated): the T/C by setting is: under setting [9], 105 % of control; under setting [10], 100 % of control; under setting [11], 100 % of control.
Regarding `COC(=O)C(=O)c1c(C(=O)OC)nc2nnc(N)n2c1-c1ccc(Cl)c(Cl)c1`, the T/C is 96 % of control under setting [1], 101 % of control under setting [2] and 104 % of control under setting [3].
On to `CC(C)(C)N1COc2cc3c(cc2C1)OCN(C(C)(C)C)C3`, for which the T/C (dose: 12.5 mg/kg/injection, schedule: Q01DX009 (ip), vehicle: saline with Tween-80) is 110 % of control; the T/C (dose: 25.0 mg/kg/injection, schedule: Q01DX009 (ip), vehicle: saline with Tween-80) is 99 % of control; the T/C (dose: 50.0 mg/kg/injection, schedule: Q01DX009 (ip), vehicle: saline with Tween-80) is 108 % of control; the T/C under setting [17] is 119 % of control.
With `CCN(CC)C(C)(C)C(=O)/C=C/c1ccc(Cl)c(Cl)c1`, the T/C runs as follows: under setting [15], 102 % of control; under setting [16], 101 % of control; (dose: 240.0 mg/kg/injection, schedule: Q01DX005 (ip), vehicle: saline) 100 % of control.
Turning to `CC(C)C1=CC2=C[C@H](O)[C@H]3C(C)(C)CCC[C@]3(C)C2=C(O)C1=O`, the T/C reads like this: (dose: 1.25 mg/kg/injection, schedule: Q01DX009 (ip), vehicle: saline with Tween-80) 109 % of control and 91 % of control; (dose: 1.25 mg/kg/injection, schedule: Q01DX009 (ip), vehicle: suspension in saline) 103 % of control; (dose: 1.75 mg/kg/injection, schedule: Q01DX009 (ip), vehicle: saline with Tween-80) 108 % of control; (dose: 2.5 mg/kg/injection, schedule: Q01DX009 (ip), vehicle: saline with Tween-80) 100 % of control and 111 % of control and 123 % of control; (dose: 2.5 mg/kg/injection, schedule: Q01DX009 (ip), vehicle: suspension in saline) 109 % of control; (dose: 5.0 mg/kg/injection, schedule: Q01DX009 (ip), vehicle: saline with Tween-80) 104 % of control and 108 % of control and 111 % of control. For the same compound, the T/C (dose: 5.0 mg/kg/injection, schedule: Q01DX009 (ip), vehicle: suspension in saline) is 100 % of control; the T/C (dose: 10.0 mg/kg/injection, schedule: Q01DX009 (ip), vehicle: saline with Tween-80) was 107 % of control and 109 % of control and 113 % of control; the T/C (dose: 10.0 mg/kg/injection, schedule: Q01DX009 (ip), vehicle: suspension in saline) is 113 % of control; the T/C (dose: 20.0 mg/kg/injection, schedule: Q01DX009 (ip), vehicle: suspension in saline) was 109 % of control.
